Assays:
Assay type in all cases: in vivo
Sugarbeet = test: Pre-emergent herbicidal test; conditions: 4 WAT
Description: (§1) The pre-emergent test was conducted as follows:
(§2) A good grade of top soil was placed in aluminum pans and compacted to a depth of three-eighths to one-half inch from the top of the pan. On the top of the soil was placed a predetermined number of seeds or vegetative propagules of various plant species which were pressed into the soil surface. The soil required to level fill the pans after seeding or adding vegetative propagules was weighed into a pan. A known amount of the active ingredient applied in a solvent or as a wettable powder and the soil were thoroughly mixed, and used as a cover layer for prepared pans.
(§3) The herbicidal rating was obtained by means of a fixed scale based on the percent injury of each plant species. The ratings are defined as follows: […]

Sorghum = test: Pre-emergent herbicidal test; conditions: 4 WAT
Description: as §1, §2, §3

Panicum Spp. = test: Pre-emergent herbicidal test; conditions: 4 WAT
Description: as §1, §2, §3

Rice = test: Pre-emergent herbicidal test; conditions: 4 WAT
Description: as §1, §2, §3

Hemp Sesbania = test: Pre-emergent herbicidal test; conditions: 4 WAT
Description: as §1, §2, §3

Soybean = test: Pre-emergent herbicidal test; conditions: 4 WAT
Description: as §1, §2, §3

Wheat = test: Pre-emergent herbicidal test; conditions: 4 WAT
Description: as §1, §2, §3

Crabgrass = test: Pre-emergent herbicidal test; conditions: 4 WAT
Description: as §1, §2, §3

Wild Buckwheat = test: Pre-emergent herbicidal test; conditions: 4 WAT
Description: as §1, §2, §3

Velvetleaf [1] = test: Post-emergent herbicidal test; conditions: 4 WAT, 11.2 kg/h
Description: (§4) The post-emergent tests were conducted as follows:
(§5) The active ingredients are applied in spray form to two or three week old specimens of various plant species. The spray, a solution or wettable powder suspension containing the appropriate rate of active ingredient to give the desired test rate and a surfactant, is applied to the plants.
(§6) The compounds were also tested by utilizing the above procedure on the following plant species: […]

Morningglory [2] = test: Post-emergent herbicidal test; conditions: 4 WAT, 11.2 kg/h
Description: as §4, §5, §6

Canada Thistle [3] = test: Post-emergent herbicidal test; conditions: 4 WAT, 11.2 kg/h
Description: as §4, §5, §6

Johnsongrass [4] = test: Post-emergent herbicidal test; conditions: 4 WAT, 11.2 kg/h
Description: as §4, §5, §6

Barnyardgrass [5] = test: Post-emergent herbicidal test; conditions: 4 WAT, 11.2 kg/h
Description: as §4, §5, §6

Quackgrass [6] = test: Post-emergent herbicidal test; conditions: 4 WAT, 11.2 kg/h
Description: as §4, §5, §6

Yellow Nutsedge [7] = test: Post-emergent herbicidal test; conditions: 4 WAT, 11.2 kg/h
Description: as §4, §5, §6

Lambsquarters [8] = test: Post-emergent herbicidal test; conditions: 4 WAT, 11.2 kg/h
Description: as §4, §5, §6

Downy Brome [9] = test: Post-emergent herbicidal test; conditions: 4 WAT, 11.2 kg/h
Description: as §4, §5, §6

Smartweed [10] = test: Post-emergent herbicidal test; conditions: 4 WAT, 11.2 kg/h
Description: as §4, §5, §6

Cocklebur [11] = test: Post-emergent herbicidal test; conditions: 4 WAT, 11.2 kg/h
Description: as §4, §5, §6

Velvetleaf [12] = test: Pre-emergent herbicidal test
Description: as §1, §2, §3, §6

Morningglory [13] = test: Pre-emergent herbicidal test
Description: as §1, §2, §3, §6

Canada Thistle [14] = test: Pre-emergent herbicidal test; conditions: 11.2 kg/h
Description: as §1, §2, §3, §6

Johnsongrass [15] = test: Pre-emergent herbicidal test; conditions: 11.2 kg/h
Description: as §1, §2, §3, §6

Barnyardgrass [16] = test: Pre-emergent herbicidal test
Description: as §1, §2, §3, §6

Quackgrass [17] = test: Pre-emergent herbicidal test; conditions: 11.2 kg/h
Description: as §1, §2, §3, §6

Yellow Nutsedge [18] = test: Pre-emergent herbicidal test; conditions: 11.2 kg/h
Description: as §1, §2, §3, §6

Lambsquarters [19] = test: Pre-emergent herbicidal test
Description: as §1, §2, §3, §6

Downy Brome [20] = test: Pre-emergent herbicidal test
Description: as §1, §2, §3, §6

Smartweed [21] = test: Pre-emergent herbicidal test
Description: as §1, §2, §3, §6

Cocklebur [22] = test: Pre-emergent herbicidal test
Description: as §1, §2, §3, §6
Further: ranges in brackets are in %.

CCCCCOC(=O)c1ccccc1-c1cc(-c2cccc(C(F)(F)F)c2)no1 [Example 7, n-Pentyl 2-[3-[3-(Trifluoromethyl)Phenyl]-5-Isoxazolyl]Benzoate]
herbicidal rating (Sugarbeet; 0.28 kg/h): 3 (75-100)
herbicidal rating (Sugarbeet; 1.12 kg/h): 2 (50-74)
herbicidal rating (Sugarbeet; 5.60 kg/h): 2 (50-74)
herbicidal rating (Sorghum; 0.28 kg/h): 0 (0-24)
herbicidal rating (Sorghum; 1.12 kg/h): 1 (25-49)
herbicidal rating (Sorghum; 5.60 kg/h): 3 (75-100)
herbicidal rating (Panicum Spp.; 1.12 kg/h): 0 (0-24)
herbicidal rating (Panicum Spp.; 5.60 kg/h): 2 (50-74)
herbicidal rating (Rice; 0.28 kg/h): 1 (25-49)
herbicidal rating (Rice; 1.12 kg/h): 2 (50-74)
herbicidal rating (Rice; 5.60 kg/h): 3 (75-100)
herbicidal rating (Hemp Sesbania; 0.28 kg/h): 0 (0-24)
herbicidal rating (Hemp Sesbania; 1.12 kg/h): 1 (25-49)
herbicidal rating (Hemp Sesbania; 5.60 kg/h): 2 (50-74)
herbicidal rating (Soybean; 0.28 kg/h): 0 (0-24)
herbicidal rating (Soybean; 1.12 kg/h): 0 (0-24)
herbicidal rating (Soybean; 5.60 kg/h): 3 (75-100)
herbicidal rating (Wheat; 0.28 kg/h): 0 (0-24)
herbicidal rating (Wheat; 1.12 kg/h): 1 (25-49)
herbicidal rating (Wheat; 5.60 kg/h): 1 (25-49)
herbicidal rating (Crabgrass; 0.28 kg/h): 0 (0-24)
herbicidal rating (Crabgrass; 1.12 kg/h): 0 (0-24)
herbicidal rating (Crabgrass; 5.60 kg/h): 3 (75-100)
herbicidal rating (Wild Buckwheat; 0.28 kg/h): 3 (75-100)
herbicidal rating (Wild Buckwheat; 1.12 kg/h): 2 (50-74)
herbicidal rating (Wild Buckwheat; 5.60 kg/h): 2 (50-74)
herbicidal rating (Velvetleaf [1]): 1 (25-49)
herbicidal rating (Morningglory [2]): 2 (50-74)
herbicidal rating (Canada Thistle [3]): 2 (50-74)
herbicidal rating (Johnsongrass [4]): 2 (50-74)
herbicidal rating (Barnyardgrass [5]): 1 (25-49)
herbicidal rating (Quackgrass [6]): 0 (0-24)
herbicidal rating (Yellow Nutsedge [7]): 1 (25-49)
herbicidal rating (Lambsquarters [8]): 1 (25-49)
herbicidal rating (Downy Brome [9]): 0 (0-24)
herbicidal rating (Smartweed [10]): 1 (25-49)
herbicidal rating (Cocklebur [11]): 2 (50-74)
herbicidal rating (Velvetleaf [12]; 4 WAT, 0.28 kg/h): 0 (0-24)
herbicidal rating (Velvetleaf [12]; 4 WAT, 1.12 kg/h): 0 (0-24)
herbicidal rating (Velvetleaf [12]; 4 WAT, 5.60 kg/h): 1 (25-49)
herbicidal rating (Velvetleaf [12]; 4 WAT, 11.2 kg/h): 0 (0-24)
herbicidal rating (Morningglory [13]; 4 WAT, 0.28 kg/h): 0 (0-24)
herbicidal rating (Morningglory [13]; 4 WAT, 1.12 kg/h): 2 (50-74)
herbicidal rating (Morningglory [13]; 4 WAT, 5.60 kg/h): 2 (50-74)
herbicidal rating (Morningglory [13]; 4 WAT, 11.2 kg/h): 1 (25-49)
herbicidal rating (Canada Thistle [14]; 4 WAT): 1 (25-49)
herbicidal rating (Johnsongrass [15]; 4 WAT): 1 (25-49)
herbicidal rating (Barnyardgrass [16]; 4 WAT, 0.28 kg/h): 2 (50-74)
herbicidal rating (Barnyardgrass [16]; 4 WAT, 1.12 kg/h): 2 (50-74)
herbicidal rating (Barnyardgrass [16]; 4 WAT, 5.60 kg/h): 3 (75-100)
herbicidal rating (Barnyardgrass [16]; 4 WAT, 11.2 kg/h): 3 (75-100)
herbicidal rating (Quackgrass [17]; 4 WAT): 2 (50-74)
herbicidal rating (Yellow Nutsedge [18]; 4 WAT): 0 (0-24)
herbicidal rating (Lambsquarters [19]; 4 WAT, 0.28 kg/h): 1 (25-49)
herbicidal rating (Lambsquarters [19]; 4 WAT, 1.12 kg/h): 2 (50-74)
herbicidal rating (Lambsquarters [19]; 4 WAT, 5.60 kg/h): 2 (50-74)
herbicidal rating (Lambsquarters [19]; 4 WAT, 11.2 kg/h): 3 (75-100)
herbicidal rating (Downy Brome [20]; 4 WAT, 0.28 kg/h): 2 (50-74)
herbicidal rating (Downy Brome [20]; 4 WAT, 1.12 kg/h): 1 (25-49)
herbicidal rating (Downy Brome [20]; 4 WAT, 5.60 kg/h): 2 (50-74)
herbicidal rating (Downy Brome [20]; 4 WAT, 11.2 kg/h): 1 (25-49)
herbicidal rating (Smartweed [21]; 4 WAT, 0.28 kg/h): 0 (0-24)
herbicidal rating (Smartweed [21]; 4 WAT, 1.12 kg/h): 2 (50-74)
herbicidal rating (Smartweed [21]; 4 WAT, 5.60 kg/h): 2 (50-74)
herbicidal rating (Smartweed [21]; 4 WAT, 11.2 kg/h): 2 (50-74)
herbicidal rating (Cocklebur [22]; 4 WAT, 0.28 kg/h): 0 (0-24)
herbicidal rating (Cocklebur [22]; 4 WAT, 1.12 kg/h): 0 (0-24)
herbicidal rating (Cocklebur [22]; 4 WAT, 5.60 kg/h): 1 (25-49)
herbicidal rating (Cocklebur [22]; 4 WAT, 11.2 kg/h): 1 (25-49)

CC(C)OC(=O)c1ccccc1-c1cc(-c2cccc(C(F)(F)F)c2)no1 [Example 8, Isopropyl 2-[3-[3-(Trifluoromethyl)Phenyl]-5-Isoxazolyl]Benzoate]
herbicidal rating (Velvetleaf [1]): 0 (0-24)
herbicidal rating (Morningglory [2]): 2 (50-74)
herbicidal rating (Canada Thistle [3]): 0 (0-24)
herbicidal rating (Johnsongrass [4]): 0 (0-24)
herbicidal rating (Barnyardgrass [5]): 1 (25-49)
herbicidal rating (Quackgrass [6]): 0 (0-24)
herbicidal rating (Yellow Nutsedge [7]): 0 (0-24)
herbicidal rating (Lambsquarters [8]): 2 (50-74)
herbicidal rating (Downy Brome [9]): 0 (0-24)
herbicidal rating (Smartweed [10]): 1 (25-49)
herbicidal rating (Cocklebur [11]): 1 (25-49)
herbicidal rating (Velvetleaf [12]; 2 WAT, 11.2 kg/h): 0 (0-24)
herbicidal rating (Morningglory [13]; 2 WAT, 11.2 kg/h): 0 (0-24)
herbicidal rating (Canada Thistle [14]; 2 WAT): 0 (0-24)
herbicidal rating (Johnsongrass [15]; 2 WAT): 0 (0-24)
herbicidal rating (Barnyardgrass [16]; 2 WAT, 11.2 kg/h): 0 (0-24)
herbicidal rating (Quackgrass [17]; 2 WAT): 1 (25-49)
herbicidal rating (Yellow Nutsedge [18]; 2 WAT): 0 (0-24)
herbicidal rating (Lambsquarters [19]; 2 WAT, 11.2 kg/h): 3 (75-100)
herbicidal rating (Downy Brome [20]; 2 WAT, 11.2 kg/h): 0 (0-24)
herbicidal rating (Smartweed [21]; 2 WAT, 11.2 kg/h): 0 (0-24)
herbicidal rating (Cocklebur [22]; 2 WAT, 11.2 kg/h): 0 (0-24)

From US4229204A, “Trifluoromethylphenyl isoxazolyl benzoates” (Monsanto Company, priority 1978, dated 1980)
